Oligonucleotides are written 5' to 3', each unit as a sugar letter and its base; * is a phosphorothioate linkage, no mark a phosphodiester; rarer units and linkages stand in square brackets, end groups in braces. Plain capitals give the bases only. {ST23(ps)x3-ST43} = conjugate of three ST23 units joined by phosphorothioates, then ST43, saccharide (preferably GalNAc) moiety; {VP} = (E)-vinylphosphonate; m = 2'-O-methyl; f = 2'-fluoro
How the values were obtained:
[1] = test system: primary hepatocytes; assay: Intracellular magnesium levels in primary hepatocytes (Example 1); type: cell-based, mouse; settings: NASH-induced primary hepatocytes; FIG. 7B
Description: Primary hepatocytes grown in glass coverslips were loaded with 2 µM Mag-S-Tz or 1 µM Mag-S-Tz-AM diluted REF (Gruskos et al., 2016. J. Am. Chem. Soc. 138 (44), pp 14639-14649) in 0% FBS/1% PSG medium and incubated at 37° C. and 5% CO2 during 30′ or 1 h respectively. After removing the dye-containing medium, a 30′ incubation in 0% FBS/1% PSG was performed. Coverslips were then washed in a 20 mM Tris-HCl, 2.4 mM CaCl2, 10 mM glucose, pH 7.4 buffer and mounted on a perfusion chamber with thermostat on a Eclipse TE 300-based microspectrofluorometer (Nikon, USA) and visualized with a 40x oil-immersion fluorescence. Intracellular Mg2+ levels were determines using the method described by Grynkiewicz (Grynkiewiz et al., 1985. J Biol Chem. 260(6):3440-50). The 340/380 nm excited light ratio was determined with a Delta system (Photon Technologies International, Princeton) and converted into Mg^2+ concentration from the standard equation: […]

[2] = test system: primary hepatocytes; assay: Lipid content in NASH-induced primary hepatocytes, BODIPY (Example 1); type: cell-based, mouse
Description: Primary hepatocytes from 3-month old wild-type (C57BL/6J) mice were isolated by perfusion with collagenase Type I (Worthington, USA). Briefly, animals were anesthetized with isoflurane (1.5% isoflurane in O2). […] Liver was perfused with buffer A (1x PBS, 5 mM EGTA, 37° C. and oxygenated) and the portal vein was cut. Next, liver was perfused with buffer B (1x PBS, 1 mM CaCl2 37° C. and oxygenated) to remove EGTA, and finally perfused with buffer C (1x PBS, 2 mM CaCl2, 0.65 BSA, collagenase type I, 37° C. and oxygenated). After buffer C perfusion, liver was separated from the resto of the body and placed into a petri dish with MEM (Gibco, USA). Gall bladder was carefully removed and, then, liver was mechanically disaggregated with forceps. […]
(§1) Primary hepatocytes cultured in high lipid content medium (OA) or methionine/choline deficient medium (MDMC) were fixed in 4% paraformaldehyde (10′, RT) in PBS and incubated with BODIPY 493/503 (Molecular Probes, Invitrogen) at 1 mg/ml (1h, RT). […] Quantification of lipid bodies was performed using Frida Software and represented as mean area per total number of cells.

[3] = molecular target: T1, ASGP-R complex (Homo sapiens, UniProt P07306+P07307); settings: cited from earlier work
T1 sequence (P07306 1-291): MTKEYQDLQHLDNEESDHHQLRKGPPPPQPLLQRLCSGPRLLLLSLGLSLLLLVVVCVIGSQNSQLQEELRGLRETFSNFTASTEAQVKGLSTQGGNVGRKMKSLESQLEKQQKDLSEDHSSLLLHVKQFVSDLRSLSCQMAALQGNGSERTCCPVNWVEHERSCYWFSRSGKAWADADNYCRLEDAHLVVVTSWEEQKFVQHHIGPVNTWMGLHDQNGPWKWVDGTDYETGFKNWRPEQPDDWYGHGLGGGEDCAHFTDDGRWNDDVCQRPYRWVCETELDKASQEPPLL
T1 sequence (P07307 1-311): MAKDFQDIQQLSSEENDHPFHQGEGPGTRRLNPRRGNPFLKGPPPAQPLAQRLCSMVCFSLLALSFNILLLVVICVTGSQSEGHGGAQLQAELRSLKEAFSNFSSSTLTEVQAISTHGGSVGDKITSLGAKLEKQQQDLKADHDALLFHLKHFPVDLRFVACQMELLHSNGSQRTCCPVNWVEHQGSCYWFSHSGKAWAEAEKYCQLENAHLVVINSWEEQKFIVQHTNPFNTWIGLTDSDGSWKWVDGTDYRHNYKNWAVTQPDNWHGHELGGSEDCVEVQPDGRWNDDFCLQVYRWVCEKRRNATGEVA

[4] = test system: THLE2 cells; assay: Lipid accumulation in NASH-induced human cells (THLE2) (Example 1); type: cell-based; settings: FIG. 4A, 4B
Description: THLE-2 cells were purchased from ATCC (ATCC® CRL-2706TM). They were maintained on Bronchial Epithelial Growth Medium (BEGMTM, Lonza) supplemented with BEGM Bullet KitTM (Lonza) and 10%FBS. They were split with 0.05% trypsin-EDTA and collected in BEGM. After centrifugation at 123 g during 5 minutes, supernatant was discarded and pellet resuspended.
Cells were transfected with specific siRNAs (Hs n7o for human CNNM4 and Mm n7o for mouse CNNM4) at a final concentration of 100 nM using DharmaFECT 1 reagent (Dharmacon) following manufacturer’s protocol. DharmaFECT 1 and siRNA were diluted separately in 0% FBS/1% PSG MEM for 5′ at RT. Dilutions were then mixed and incubated 20′ at RT. siRNA transfection mixes were then added to cell suspension medium and replaced for fresh medium after 6 h.
Cells were transfected with a CNNM4 shRNA (SEQ ID NO: 454) by using lipofectamine® 3000 (Thermofisher) and following the protocol according manufacturer instructions. […]
as §1

[5] = test system: CNNM4 mRNA; assay: CNNM4 mRNA in liver of wild-type mice after single subcutaneous dose (Examples 12-14); type: in vivo, mouse; settings: wild-type C57BL/6 mice
Description: (§2) Five- to seven-week old male C57BL/6 mice were treated with a single dose of 1 or 5 mg siRNA conjugate per kg body weight by subcutaneous injection. Control groups received a subcutaneous injection with the vehicle PBS. Two weeks after the treatment, liver samples were collected from all mice and snap frozen. RNA was extracted from liver samples and CNNM4 and Actin mRNA levels were determined by Taqman qRT-PCR. Values obtained for CNNM4 mRNA were normalized to values generated for the housekeeping gene Actin and related to mean of untreated sample (ut) set at 1-fold target gene expression. Each bar represents mean value from 6 animals +/-SD.
Five- to seven-week old male C57BL/6 mice were treated with a single dose of 0.3 or 1 mg siRNA conjugate per kg body weight by subcutaneous injection. Control groups received a subcutaneous injection with the vehicle PBS. Two weeks after the treatment, liver samples were collected from all mice and snap frozen. RNA was extracted from liver samples and CNNM4 and Actin mRNA levels were determined by Taqman qRT-PCR. Values obtained for CNNM4 mRNA were normalized to values generated for the housekeeping gene Actin and related to mean of untreated sample (ut) set at 1-fold target gene expression. Each bar represents mean value from 6 animals +/-SD.
as §2, with “1” for “1 or 5”, “Five” for “Two”, “PBS treated cohort (PBS)” for “untreated sample (ut)”

[6] = test system: 0.1% MCDD NASH model; assay: Rodent 0.1% MCDD NASH model: steatosis, ROS, macrophages, fibrosis, serum Mg2+ (Example 18); type: in vivo, mouse; settings: 0.1% MCDD mice
Description: Three-month old male C57BL/6 mice were maintained on a diet deficient in choline with 0.1% methionine (0.1%MCDD) (A02082006i, Research Diets, Inc., New Jersey, USA) for six weeks or fed a standard chow (SC). After three weeks of 0.1% MCDD, mice were treated with […] CNNM4 siRNA conjugate (EU414) per body weight. Control groups fed with 0.1% MCD received 1 mg/kg non-targeting siRNA conjugate (EU400). Control mice fed with normal chow (SC) received the vehicle PBS at the same time point (three weeks). Liver samples were collected from all mice at the end of the study and cryopreserved by embedding in […] cryocompound (OCT) or fixed with formalin and embedded in paraffin for preparation of sections. Lipid bodies and reactive oxygen species (ROS) were detected in cryosections by staining with Sudan red and Dihydroxyetidium (DHE), respectively. Liver fibrosis was assessed in paraffine sections by staining of the smooth muscle cell marker alpha smooth muscle actin (αSMA) by immunohistochemistry, as well as by detection of collagen fibers by Sirius red staining. Macrophages were detected by immunohistochemistry, by F4/80 staining of paraffin-embedded liver sections. Blood samples were collected from all animals at the six-week time point for serum preparation. Serum Mg^2+ levels were then determined using the QuantiCrom™Magnesium Assay Kit (BioAssay Systems, USA).
These figures show quantifications of stained area percentages from each individual staining calculated using FIJI (https://imagej.net/Fiji.) in box and whisker plots with 5-95% percentile. n=5-7. (a.u. = arbitrary units).

[7] = test system: murine hepatocytes; assay: Acetaminophen (APAP) induced cell death in hepatocytes, Tunel and Trypan Blue (Example 19); type: cell-based; settings: 1 nM and 10 nM for 6 hours, 10 mM acetaminophen for 6 hours
Description: Freshly prepared murine hepatocytes were seeded in multi-well plates. Upon attachment, cells were incubated for 6 hours with 1 nM and 10 nM of EU404 or EU414 or left untreated. Thereafter, cells were cultured in serum-free culture medium (MEM) for 13 to 14 hours. Subsequently, they remained untreated (Ut) or 10 mM acetaminophen was added to the medium (APAP). 6 hours later, cells were stained by Tunel assay or Trypan Blue staining to determine the proportion of cells that were necrotic (Tunel positive) or had undergone cell death (Trypan Blue positive).

[8] = test system: CNNM4; assay: CNNM4 expression in hepatocytes of the APAP experiment (Example 19); type: cell-based; settings: murine hepatocytes, 1 nM and 10 nM for 6 hours; FIG. 25A

For Nc1c[nH]c(=O)c2cc(-c3ccccc3)sc12 [7-amino-2-phenyl-5H-thieno[3,2-c]pyridin-4-one, reference compound], the Intracellular magnesium levels [1] was “accumulate magnesium” and the Lipid content ([2]; NASH-induced primary hepatocytes, FIG. 3A, 5A, 7A) was “decreases its lipid content”.

For CC(=O)N[C@H]1C(O)O[C@H](CO)[C@H](O)[C@@H]1O (stereo partly drawn) [GalNAc, 2-(Acetylamino)-2-deoxy-D-galactopyranose], the “Affinity for the ASGP-R complex relative to D-Gal” value [3] is given as 50 fold.

For “CNNM4 shRNA: CNNM4 shRNA (SEQ ID NO: 454) (UCUCUGCCUUCAAGGAUGCGGACAAUGAG; listed as RNA, chemistry not fully specified)”, the Lipid content [4] was “returns to healthy levels”.

In the case of “EU414: CNNM4 siRNA conjugate, duplex EU414A/EU414B; consists of SEQ ID NO: 237 and SEQ ID NO: 238 (chain 1 {VP}-mUfGmAfCmAfAmAfAmGfAmCfAmCfAmAfGmA*fG*mU; chain 2 {ST23(ps)x3-ST43}*mAmCmUmCmUmUfGfUfGmUmCmUmUmUmUmGmU*mC*mA)”, the “CNNM4 mRNA levels in the liver” value ([5]; two weeks after single dose of 1 or 5 mg/kg s.c., FIG. 18) is reported as “reduction of CNNM4 mRNA levels”, the “Liver steatosis (lipid bodies, Sudan red)” value ([6]; 1 or 5 mg/kg at week 3, liver at week 6, FIG. 24A) is reported as “reduction of liver steatosis” and the “Reactive oxygen species (DHE staining)” value ([6]; 1 or 5 mg/kg at week 3, liver at week 6, FIG. 24B) is reported as “reduction of reactive oxygen species”. The “Macrophage infiltration (F4/80 positive cells) in the liver” value ([6]; 1 or 5 mg/kg at week 3, liver at week 6, FIG. 24C) was “reduction of macrophage infiltration”, the “Liver fibrosis (αSMA, Sirius red)” value ([6]; 1 or 5 mg/kg at week 3, liver at week 6, FIGS. 24D and 24E) was “reduction in liver fibrosis” and the “Serum Mg2+ levels” value ([6]; 1 or 5 mg/kg at week 3, serum at six-week time point, FIG. 24F) was “reduction of serum Mg^2+ levels”. The “Tripan Blue positive cells (cell death marker)” value [7] was “reduction”, the “Tunel positive cells (necrosis marker)” value [7] was “reduction of Tunel positive cells” and the CNNM4 expression [8] was “reduction of CNNM4 expression”.

For “EU420: CNNM4 siRNA conjugate, duplex EU414A/EU420B; consists of SEQ ID NO: 237 and SEQ ID NO: 460 (chain 1 UGACAAAAGACACAAGAGU; chain 2 ACUCUUGUGUCUUUUGUCA; conjugate, chemistry not fully specified)”, the “CNNM4 mRNA levels in the liver” value ([5]; five weeks after single dose of 1 mg/kg s.c., FIG. 20) was “reduction of CNNM4 mRNA levels” and the “CNNM4 mRNA levels in the liver” value ([5]; two weeks after single dose of 0.3 or 1 mg/kg s.c., FIG. 19) was “reduction of CNNM4 mRNA levels”.

For Magnesium, the Lipid content ([2]; primary hepatocytes with CNNM4 overexpression, FIG. 5B) was “does not reduce lipid content”.
